“And” between values parts separate entries of the source, which are not always exact repeats. Equal values may be shown once. Inconclusive results and toxic doses are left out. No stated cut-off is given here; in the data, active means T/C of 150% or more; inactive means T/C below 125%.
System: L1210 leukemia ip in BDF1 mice, survival T/C
Assay: NCI In Vivo Anticancer Drug Screen. Data for tumor model L1210 Leukemia (intraperitoneal) in B6D2F1 (BDF1) mice
Settings: higher = longer survival
Method in brief: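 Read-out is survival time, reported as the treated-group measurement over the vehicle-control measurement.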

[1] = endpoint: mean survival time, dose: 100.0 mg/kg/injection, schedule: Q04DX003 (ip), vehicle: saline
[2] = endpoint: mean survival time, dose: 200.0 mg/kg/injection, schedule: Q04DX003 (ip), vehicle: saline
[3] = endpoint: mean survival time, dose: 400.0 mg/kg/injection, schedule: Q04DX003 (ip), vehicle: saline
[4] = endpoint: mean survival time, dose: 100.0 mg/kg/injection, schedule: Q01DX009 (ip), vehicle: saline with Tween-80
[5] = endpoint: mean survival time, dose: 200.0 mg/kg/injection, schedule: Q01DX009 (ip), vehicle: saline with Tween-80
[6] = endpoint: mean survival time, dose: 50.0 mg/kg/injection, schedule: Q01DX001 (ip), vehicle: saline
[7] = endpoint: mean survival time, dose: 100.0 mg/kg/injection, schedule: Q01DX001 (ip), vehicle: saline
[8] = endpoint: mean survival time, dose: 200.0 mg/kg/injection, schedule: Q01DX001 (ip), vehicle: saline
[9] = endpoint: mean survival time, dose: 400.0 mg/kg/injection, schedule: Q01DX001 (ip), vehicle: saline
[10] = endpoint: mean survival time, dose: 100.0 mg/kg/injection, schedule: Q04DX003 (ip), vehicle: Klucel (hydroxypropylcellulose) (HPC)
[11] = endpoint: mean survival time, dose: 200.0 mg/kg/injection, schedule: Q04DX003 (ip), vehicle: Klucel (hydroxypropylcellulose) (HPC)
[12] = endpoint: mean survival time, dose: 400.0 mg/kg/injection, schedule: Q04DX003 (ip), vehicle: Klucel (hydroxypropylcellulose) (HPC)
[13] = endpoint: mean survival time, dose: 100.0 mg/kg/injection, schedule: Q04DX003 (ip), vehicle: saline with Tween-80
[14] = endpoint: mean survival time, dose: 200.0 mg/kg/injection, schedule: Q04DX003 (ip), vehicle: saline with Tween-80
[15] = endpoint: mean survival time, dose: 400.0 mg/kg/injection, schedule: Q04DX003 (ip), vehicle: saline with Tween-80
[16] = endpoint: mean survival time, dose: 100.0 mg/kg/injection, schedule: Q01DX001 (ip), vehicle: other
[17] = endpoint: mean survival time, dose: 100.0 mg/kg/injection, schedule: Q01DX009 (ip), vehicle: Klucel (hydroxypropylcellulose) (HPC)
[18] = endpoint: mean survival time, dose: 200.0 mg/kg/injection, schedule: Q01DX009 (ip), vehicle: Klucel (hydroxypropylcellulose) (HPC)
[19] = endpoint: mean survival time, dose: 400.0 mg/kg/injection, schedule: Q01DX009 (ip), vehicle: Klucel (hydroxypropylcellulose) (HPC)
[20] = endpoint: mean survival time, dose: 6.25 mg/kg/injection, schedule: Q01DX009 (ip), vehicle: saline
[21] = endpoint: mean survival time, dose: 12.5 mg/kg/injection, schedule: Q01DX009 (ip), vehicle: saline
[22] = endpoint: mean survival time, dose: 25.0 mg/kg/injection, schedule: Q01DX009 (ip), vehicle: saline

Measured: T/C

O=S(=O)(Oc1ccc(Cl)cc1)c1ccc(Cl)cc1
inactive: endpoint: mean survival time, dose: 100.0 mg/kg/injection, schedule: Q01DX009 (ip), vehicle: saline 88 % of control | [1] 103 % of control | [2] 98 % of control | endpoint: mean survival time, dose: 400.0 mg/kg/injection, schedule: Q01DX009 (ip), vehicle: saline 90 % of control | [3] 103 % of control

Cc1ccc(SC(=O)CC(=O)Sc2ccc(C)cc2)cc1
inactive: endpoint: mean survival time, dose: 50.0 mg/kg/injection, schedule: Q01DX009 (ip), vehicle: saline with Tween-80 91 % of control | [4] 94 % of control | [5] 97 % of control

Nc1nc(Cl)cc2c1ncn2C1OC(CO)C(O)C1O (stereo not drawn)
inactive: endpoint: mean survival time, dose: 100.0 mg/kg/injection, schedule: Q01DX005 (ip), vehicle: saline 105 % of control | endpoint: mean survival time, dose: 200.0 mg/kg/injection, schedule: Q01DX005 (ip), vehicle: saline 107 % of control

O=C(CCCC(=O)N/N=C/c1cccc(O)c1)N/N=C\c1cccc(O)c1
inactive: [6] 98 % of control | [7] 104 % of control | [8] 98 % of control | [9] 92 % of control

CC(C)(C)C1CN1C(=S)Nc1ccccc1 (stereo not drawn)
inactive: [10] 104 % of control | [11] 105 % of control | [12] 102 % of control

CC(=O)NC1CCCC2CCCCC21 (stereo not drawn)
inactive: [4] 94 % of control and 99 % of control | [13] 93 % of control | [5] 109 % of control and 100 % of control | [14] 94 % of control | endpoint: mean survival time, dose: 400.0 mg/kg/injection, schedule: Q01DX009 (ip), vehicle: saline with Tween-80 103 % of control | [15] 94 % of control

N#C/C(=C\c1ccc2c(c1)CCC2)C(N)=O
inactive: [13] 105 % of control | [14] 95 % of control | [15] 95 % of control

O=C(CCCc1ccc([N+](=O)[O-])cc1)Nc1ccc(S(=O)(=O)F)cc1
inactive: [7] 101 % of control | [8] 100 % of control | [9] 97 % of control

CCOC(=O)Nc1cc(N)c(N)c(NC(c2ccccc2)c2ccccc2)n1
inactive: [16] 102 % of control | endpoint: mean survival time, dose: 200.0 mg/kg/injection, schedule: Q01DX001 (ip), vehicle: other 104 % of control | endpoint: mean survival time, dose: 400.0 mg/kg/injection, schedule: Q01DX001 (ip), vehicle: other 100 % of control

Cc1ccc(CNc2ccc(Br)cc2)cc1
inactive: [17] 96 % of control | [10] 101 % of control | [18] 99 % of control | [11] 102 % of control | [19] 94 % of control | [12] 101 % of control

CN(CC(=O)NCCCCCCCCCCNC(=O)CN(C)C(=O)OCc1ccccc1)C(=O)OCc1ccccc1
inactive: endpoint: mean survival time, dose: 10.0 mg/kg/injection, schedule: Q01DX Z (ip), vehicle: saline 94 % of control | endpoint: mean survival time, dose: 30.0 mg/kg/injection, schedule: Q01DX Z (ip), vehicle: saline 88 % of control | endpoint: mean survival time, dose: 100.0 mg/kg/injection, schedule: Q01DX Z (ip), vehicle: saline 91 % of control | endpoint: mean survival time, dose: 300.0 mg/kg/injection, schedule: Q01DX Z (ip), vehicle: saline 88 % of control

Nc1ccccc1N=Cc1cc(F)ccc1[N+](=O)[O-]
inactive: endpoint: mean survival time, dose: 100.0 mg/kg/injection, schedule: Q04DX003 (ip), vehicle: other 97 % of control | endpoint: mean survival time, dose: 200.0 mg/kg/injection, schedule: Q04DX003 (ip), vehicle: other 102 % of control | endpoint: mean survival time, dose: 400.0 mg/kg/injection, schedule: Q04DX003 (ip), vehicle: other 114 % of control

O=C1CCOc2ccc3ccccc3c21
inactive: endpoint: mean survival time, dose: 100.0 mg/kg/injection, schedule: Q01DX001 (ip), vehicle: Klucel (hydroxypropylcellulose) (HPC) 101 % of control | [17] 109 % of control | endpoint: mean survival time, dose: 200.0 mg/kg/injection, schedule: Q01DX001 (ip), vehicle: Klucel (hydroxypropylcellulose) (HPC) 98 % of control | [18] 101 % of control | endpoint: mean survival time, dose: 400.0 mg/kg/injection, schedule: Q01DX001 (ip), vehicle: Klucel (hydroxypropylcellulose) (HPC) 90 % of control | [19] 111 % of control

CCCC(C(=O)OCCN(CC)CC)(c1ccccc1)c1ccccc1
inactive: [20] 106 % of control | [21] 92 % of control | endpoint: mean survival time, dose: 12.5 mg/kg/injection, schedule: Q04DX003 (ip), vehicle: saline 102 % of control | [22] 93 % of control | endpoint: mean survival time, dose: 25.0 mg/kg/injection, schedule: Q04DX003 (ip), vehicle: saline 116 % of control | endpoint: mean survival time, dose: 50.0 mg/kg/injection, schedule: Q01DX009 (ip), vehicle: saline 93 % of control | endpoint: mean survival time, dose: 50.0 mg/kg/injection, schedule: Q04DX003 (ip), vehicle: saline 100 % of control | [1] 102 % of control

O=C(Oc1ccccc1I)c1cc(I)c(I)c(I)c1
inactive: [10] 92 % of control | [12] 94 % of control

O=C1c2ccccc2-c2nc3ncccc3nc21
inactive: [10] 101 % of control | [11] 98 % of control | [12] 98 % of control

Oc1ccc2cc(Br)ccc2c1-c1c(O)ccc2cc(Br)ccc12
inactive: endpoint: mean survival time, dose: 100.0 mg/kg/injection, schedule: Q04DX002 (ip), vehicle: saline with Tween-80 97 % of control | endpoint: mean survival time, dose: 200.0 mg/kg/injection, schedule: Q04DX002 (ip), vehicle: saline with Tween-80 94 % of control | endpoint: mean survival time, dose: 400.0 mg/kg/injection, schedule: Q04DX002 (ip), vehicle: saline with Tween-80 87 % of control

O=C(NCCCl)NC1C(O)OC(CO)C(O)C1O (stereo not drawn)
inactive: endpoint: mean survival time, dose: 25.0 mg/kg/injection, schedule: Q01DX009 (ip), vehicle: water 95 % of control | endpoint: mean survival time, dose: 50.0 mg/kg/injection, schedule: Q01DX009 (ip), vehicle: water 110 % of control | [7] 97 % of control | endpoint: mean survival time, dose: 100.0 mg/kg/injection, schedule: Q01DX009 (ip), vehicle: water 105 % of control | [8] 98 % of control | endpoint: mean survival time, dose: 200.0 mg/kg/injection, schedule: Q01DX009 (ip), vehicle: water 100 % of control | [9] 96 % of control | endpoint: mean survival time, dose: 400.0 mg/kg/injection, schedule: Q01DX009 (ip), vehicle: water 97 % of control

O=C(O)C(F)(F)C(F)(F)C(F)(F)F.[Ag]
inactive: endpoint: mean survival time, dose: 10.0 mg/kg/injection, schedule: Q01DX001 (ip), vehicle: acetone 101 % of control | endpoint: mean survival time, dose: 20.0 mg/kg/injection, schedule: Q01DX001 (ip), vehicle: acetone 96 % of control | endpoint: mean survival time, dose: 40.0 mg/kg/injection, schedule: Q01DX001 (ip), vehicle: acetone 109 % of control

COc1cc([C@@H]2c3cc4c(cc3C[C@H]3COC(=O)[C@@H]32)OCO4)cc(OC)c1OC
inactive: endpoint: mean survival time, dose: 3.12 mg/kg/injection, schedule: Q01DX009 (ip), vehicle: saline 94 % of control | [20] 109 % of control | endpoint: mean survival time, dose: 12.5 mg/kg/injection, schedule: Q01DX001 (ip), vehicle: saline 115 % of control | [21] 110 % of control | endpoint: mean survival time, dose: 25.0 mg/kg/injection, schedule: Q01DX001 (ip), vehicle: saline 115 % of control | [22] 116 % of control | endpoint: mean survival time, dose: 45.0 mg/kg/injection, schedule: Q01DX001 (ip), vehicle: saline 123 % of control | endpoint: mean survival time, dose: 50.0 mg/kg/injection, schedule: Q01DX001 (ip), vehicle: other 109 % of control | endpoint: mean survival time, dose: 50.0 mg/kg/injection, schedule: Q01DX001 (ip), vehicle: saline with Tween-80 110 % of control | [6] 111 % of control and 117 % of control | endpoint: mean survival time, dose: 50.0 mg/kg/injection, schedule: Q04DX003 (ip), vehicle: saline with Tween-80 116 % of control | [16] 116 % of control | endpoint: median survival time, dose: 2.5 mg/kg/injection, schedule: Q01DX009 (ip), vehicle: saline 111 % of control | endpoint: median survival time, dose: 5.0 mg/kg/injection, schedule: Q01DX009 (ip), vehicle: saline 122 % of control | endpoint: median survival time, dose: 10.0 mg/kg/injection, schedule: Q01DX009 (ip), vehicle: saline 88 % of control

CN(C)CCC1(c2ccccc2)CCN(C)C1=O (stereo not drawn)
inactive: endpoint: mean survival time, dose: 75.0 mg/kg/injection, schedule: Q01DX001 (ip), vehicle: carboxymethylcellulose (CMC) 95 % of control | endpoint: mean survival time, dose: 150.0 mg/kg/injection, schedule: Q01DX001 (ip), vehicle: carboxymethylcellulose (CMC) 95 % of control

O=C1CCc2cc3c(cc21)OCO3
inactive: [1] 103 % of control | [2] 96 % of control | [3] 102 % of control

Source: PubChem BioAssay AID248 (DTP/NCI, 2004)
